Tests used:
Assay type in all cases: in vivo, healthy men
[1] = test system: perception of sweet taste (panel members); assay: Qualitative evaluation of the perception of sweet taste by a 5-volunteer panel; design: key to Perception of sweet taste: +: perception of sweet taste; ++: very strong perception of sweet taste; −: absence of sweet taste; settings: 4000 ppm solution in 20% ethanol, 5 panel members; for Perception of sweet taste: 10 ml mouth rinse 20 s
Method: Compounds according to the present invention destined for testing of their taste perception modifying properties were re-crystallized from ethanol or an ethanol-water mixture.
Qualitative evaluation of the perception of sweet taste; the examined substances were dissolved in a 20% ethanol and water mixture (vol./vol.).
Three initial solutions were formulated, containing: • the compound of example 1 (3-benzylaminomethylenedihydrofuran-2-one, 4000 ppm solution-400 mg in 100 ml 20% ethanol), • compound of example 2 ((R)-3-(1-phenylethylamino)methylenedihydrofuran-2-one, 4000 ppm solution-400 mg in 100 ml 20% ethanol), • compound of example 6 (2-benzylaminomethylenecyclopentanone, 4000 ppm solution−400 mg in 100 ml 20% ethanol).
Solutions of lower concentrations were obtained through dilution, to appropriate proportions, of the initial solutions with a 20% mixture of ethanol and distilled water (vol./vol.).
(§1) Evaluation of the degree of sweetness of the compounds according to the present invention was performed using a 5-volunteer panel—healthy men—henceforth referred to as panel members. All panel members were informed of the need to maintain safety procedures during the evaluation of the compounds according to the present invention, In particular, of the need to avoid swallowing the tested solutions. Each of the panel members received a 10 ml sample of a solution in a small vial and rinsed out their mouth with the entire contents of the vial for 20 seconds and then spit out the tested solution. Next, they carefully rinsed out their mouth with a large volume of distilled water (at least 150 ml) for at least 30 seconds. When the panel member felt that they no longer perceived any taste, they could proceed with the evaluation of the next solution.
During the first stage, the panel members qualitatively examined the taste of the three initial solutions containing 4000 ppm of a compound according to the present invention. The panel members all agreed that the solutions have an intensive sweet taste.
An additional qualitative evaluation was made of compounds according to the present invention from examples 4, 7 and 9, and compounds from comparative examples 1-19, in the form of 4000 ppm solutions. […] Solutions of compounds from the comparative examples lack a sweet taste.

[2] = test system: perception of sweetness (panel members); assay: Comparative analysis of the intensity of the sweet taste against a 10% saccharose reference solution; settings: for Results of sweetness comparisons against the reference solution [+] (sample sweeter) / Results of sweetness comparisons against the reference solution [=] (unable to tell) / Results of sweetness comparisons against the reference solution [−] (sample less sweet): count out of 10 comparative tests, reference 10% saccharose in 20% ethanol
Source text: During the next stage, we performed a comparative analysis of the intensity of the sweet taste. In the study we used the compound of example 1 (3-benzyl-aminomethylenedihydrofuran-2-one). The subject of the study consisted of samples of the initial 4000 ppm solution, and samples of diluted solutions containing 2000, 1000, 800 and 500 ppm of the compound of example 1.
The reference solution comprised 10% saccharose (wt./wt.) in 20% ethanol, containing 100000 ppm (wt./wt.) saccharose.
The study operator gave the panel members samples of the compound with the formula 1 marked with randomly generated 3-digit numbers, and also samples of the reference solution of saccharose in order to compare the perception of sweetness to the saccharose reference solution. Each of the 5 panel members received for comparison random samples of the solutions of the compound of example 1, twice, containing 4000 ppm, 2000 ppm, 1000 ppm, 800 ppm and 500 ppm of the compound. Each concentration was thus examined in 10 comparative tests.
The task for each panel member was to determine whether a given sample is less or more sweet than the reference solution. Each of the panel members completed a form according to the following rules: if a sample was sweeter, then he placed a plus sign [+] beside the symbol of the sample, if it was less sweet, a minus sign [−], and if in doubt, an equal sign [=]. Similar to the qualitative analysis, each of the panel members received a sample of 10 ml of a solution in a small vial, gently rinsed his mouth out with it for 20 seconds and then spat out the tested solution. Next, he carefully rinsed out his mouth with a large volume of distilled water (at least 150 ml) for at least 30 seconds. When the panel member felt that he no longer perceived any taste, he could proceed with the evaluation of the next solution.

[3] = test system: sweet taste of sweet-tasting products (panel members); assay: Inhibition of sweet taste of sweet products, commercial sweeteners and sweet compounds by the compound of example 3; design: key to Perceived sweet taste: ++: Strong perception of sweet taste; key to Perception of sweet taste following the addition of the compound of example 3: <<+: Weak or absent perception of sweet taste; settings: for Perceived sweet taste: without compound of example 3
Method: Evaluation of the degree of sweetness of the compounds according to the present invention was performed using a 5-volunteer panel-healthy men-henceforth referred to as panel members. All panel members were informed of the need to maintain safety procedures during the evaluation of the compounds according to the present invention, In particular, of the need to avoid swallowing the tested solutions. Each of the panel members received a 10 ml sample of a solution in a small vial and rinsed out their mouth with the entire contents of the vial for 20 seconds and then spit out the tested solution. Next, they carefully rinsed out their mouth with a large volume of distilled water (at least 150 ml) for at least 30 seconds. When the panel member felt that they no longer perceived any taste, they could proceed with the evaluation of the next solution. Solutions of sweet products were prepared (saccharose, glucose, bee honey, glycine), by dissolving 100 mg of the product in 5 ml 20% aqueous ethanol. Two solutions are prepared of each product. One of these solutions is supplemented with a compound according to example 3 of the present invention (100 mg). Next, the taste of both solutions is compared for evaluating the qualitative perception of the taste of both solutions, proceeding according to the procedure established above, for the qualitative evaluation of the perception of sweet taste. The study results are compiled in Table 4. Solutions of commercially available sweeteners were prepared (“Sweet Top®” containing aspartame and […]®” containing sorbitol, sodium cyclamate and sodium saccharinate), by dissolving 5 mg of the sweetener in 20 ml of 20% aqueous ethanol. Each sweetener solution was made up twice. One of these solutions was supplemented with a compound according to example 3 of the present invention (5 mg). Next, the taste of both solutions was evaluated proceeding according to the procedure shown above, for the qualitative evaluation of the perception of sweet taste. The study results are compiled in Table 4. Solutions of compounds with a sweet taste according to the present invention were prepared (compounds of examples 1, 2 and 6), dissolving 5 mg of the compound according to the present invention in 20 ml 20% of aqueous ethanol. Two solutions were made of each compound of examples 1, 2 and 6. One of these solutions was supplemented with the compound of example 3 according to the present invention (5 mg). Next, the taste of both solutions was evaluated proceeding according to the above procedure for the qualitative evaluation of the perception of sweet taste. The study results are compiled in Table 4.

[4] = test system: sweet taste of saccharose (panel members); assay: Inhibition of sweet taste of a saccharose solution, qualitative panel evaluation; design: key to Inhibition of sweet taste: ++: complete inhibition of sweet taste; −: lack of inhibition of sweet taste; settings: 100 mg saccharose in 5 ml 20% aqueous ethanol plus 100 mg compound, vs saccharose solution without compound
Method: as §1
The inhibition of sweet taste of sweet substances or mixtures thereof by inhibitors of sweet taste according to the present invention was examine qualitatively according to the following procedure. Two samples of saccharose, each of 100 mg, are dissolved in 5 ml 20% of aqueous ethanol, and then one solution is supplemented with 100 mg of a compound of an example according to the present invention (compounds from examples 3, 5, and 8). Next, the taste of both solutions is evaluated using the procedure presented above, for the qualitative perception of a sweet taste. […] The study was also performed on compounds from comparative examples 1-19.

[5] = approximate interpretation of the dilution series, comparison with a 10% saccharose solution in 20% ethanol
[6] = 5 mg in 20 ml 20% aqueous ethanol plus 5 mg compound of example 3
[7] = 5 mg in 20 ml 20% aqueous ethanol
[8] = 100 mg product in 5 ml 20% aqueous ethanol plus 100 mg compound of example 3
[9] = 100 mg product in 5 ml 20% aqueous ethanol

O=C1OCCC1=CNCc1ccccc1 [Example 1, 3-Benzylaminomethylenedihydrofuran-2-one]
Perception of sweet taste [1]: ++ | Results of sweetness comparisons against the reference solution [+] (sample sweeter) ([2]; 500 ppm in 20% ethanol): 2 | Results of sweetness comparisons against the reference solution [=] (unable to tell) ([2]; 500 ppm in 20% ethanol): 2 | Results of sweetness comparisons against the reference solution [−] (sample less sweet) ([2]; 500 ppm in 20% ethanol): 6 | Results of sweetness comparisons against the reference solution [+] (sample sweeter) ([2]; 800 ppm in 20% ethanol): 2 | Results of sweetness comparisons against the reference solution [=] (unable to tell) ([2]; 800 ppm in 20% ethanol): 6 | Results of sweetness comparisons against the reference solution [−] (sample less sweet) ([2]; 800 ppm in 20% ethanol): 2 | Results of sweetness comparisons against the reference solution [+] (sample sweeter) ([2]; 1000 ppm in 20% ethanol): 8 | Results of sweetness comparisons against the reference solution [−] (sample less sweet) ([2]; 1000 ppm in 20% ethanol): 2 | Results of sweetness comparisons against the reference solution [+] (sample sweeter) ([2]; 2000 ppm in 20% ethanol): 10 | Results of sweetness comparisons against the reference solution [+] (sample sweeter) ([2]; 4000 ppm in 20% ethanol): 10 | Times sweeter than saccharose [2, 5]: 200-250 times | Times sweeter than saccharose ([2]; concluded from the initial 4000 ppm solution vs 10% saccharose reference): at least 50 times | Sweetness of the initial solution compared with the reference solution (saccharose) ([2]; initial 4000 ppm solution vs 10% saccharose (100000 ppm) in 20% ethanol, all panel members): much sweeter than the reference solution | Perception of sweet taste following the addition of the compound of example 3 [3, 6]: <<+ | Sweet taste of the solution with an addition of the compound of example 3 (in words) [3, 6]: only a trace perceived sweet taste | Perceived sweet taste [3, 7]: ++

C[C@@H](NC=C1CCOC1=O)c1ccccc1 [Example 2, (R)-3-(1-phenylethyl)aminomethylenedihydrofuran-2-one]
Perception of sweet taste [1]: ++ | Times sweeter than saccharose [2, 5]: 200-250 times | Perception of sweet taste following the addition of the compound of example 3 [3, 6]: <<+ | Sweet taste of the solution with an addition of the compound of example 3 (in words) [3, 6]: does not exhibit a sweet taste | Perceived sweet taste [3, 7]: ++

C[C@H](NC=C1CCOC1=O)c1ccccc1 [Example 3, (S)-3-(1-phenylethyl)aminomethylenedihydrofuran-2-one]
Inhibition of sweet taste [4]: ++ | Taste of the saccharose solution with the compound [4]: practically not sweet at all

CC[C@@H](NC=C1CCOC1=O)c1ccccc1 [Example 4, (R)-3-(1-phenylpropylo)aminomethylenedihydrofuran-2-one]
Taste of the solution as described by the panel members [1]: intensively sweet taste | Perception of sweet taste [1]: ++

CC[C@H](NC=C1CCOC1=O)c1ccccc1 [Example 5, (S)-3-(1-phenylpropylo)aminomethylenedihydrofuran-2-one]
Inhibition of sweet taste [4]: ++ | Taste of the saccharose solution with the compound [4]: practically not sweet at all

O=C1CCCC1=CNCc1ccccc1 [Example 6, 2-Benzylaminomethylenecyclopentanone]
Perception of sweet taste [1]: ++ | Times sweeter than saccharose [2, 5]: at least 250 times | Perception of sweet taste following the addition of the compound of example 3 [3, 6]: <<+ | Sweet taste of the solution with an addition of the compound of example 3 (in words) [3, 6]: only a trace perceived sweet taste | Perceived sweet taste [3, 7]: ++

C[C@@H](NC=C1CCCC1=O)c1ccccc1 [Example 7, (R)-2-(1-phenylethyl)aminomethylenecyclopentanone]
Taste of the solution as described by the panel members [1]: intensively sweet taste | Perception of sweet taste [1]: ++

C[C@H](NC=C1CCCC1=O)c1ccccc1 [Example 8, (S)-2-(1-phenylethyl)aminomethylenecyclopentanone]
Inhibition of sweet taste [4]: ++ | Taste of the saccharose solution with the compound [4]: practically not sweet at all

O=C1OCCC1=CNCc1cccnc1 [Example 9, 3-(3-pirydylomethyl)aminomethylenedihydrofuran-2-one]
Bitter side taste [1]: somewhat bitter | Taste of the solution as described by the panel members [1]: significantly less sweet than the solution of 3-benzylaminomethylenedihydrofuran-2-one | Bitter side taste ([1]; listed as example 9): admixture of a bitter taste | Perception of sweet taste [1]: +

NCC(=O)O [glycine, reference compound]
Perception of sweet taste following the addition of the compound of example 3 [3, 8]: <<+ | Sweet taste of the solution with an addition of the compound of example 3 (in words) [3, 8]: do not elicit the perception of a sweet taste, not even a weak one | Perceived sweet taste [3, 9]: ++

OC[C@H]1O[C@@](CO)(O[C@H]2O[C@H](CO)[C@@H](O)[C@H](O)[C@H]2O)[C@@H](O)[C@@H]1O [saccharose, reference compound]
Perception of sweet taste following the addition of the compound of example 3 [3, 8]: <<+ | Sweet taste of the solution with an addition of the compound of example 3 (in words) [3, 8]: do not elicit the perception of a sweet taste, not even a weak one | Perceived sweet taste [3, 9]: ++

Source: patent publication US8846125B2, “Enaminocarbonyl compounds and their use” (Instytut Chemii Organicznej, Polska Akademia Nauk, priority 2009, dated 2014)
